Data: patent publication US4960900A, “Oxyimino derivatives of thiazole, method of preparation and use in therapy” (priority 1987, dated 1990)
Where two headings read alike, the source gives them in different places.

Tests used:
[1] = system: convulsions induced by pentetrazole (PTZ); test: Anticonvulsant properties: convulsions induced by pentetrazole (PTZ), oral, mice; format: in vivo; details: per os, male mice, 30 min after administration, pentetrazole 125 mg/kg i.p.; for ED50: Mus musculus, po, 0.5 h, read-out: ED50 in respect of convulsions induced by PTZ; for ED50 in respect of convulsions induced by PTZ: 30 min
in vivo [2] = details: mouse, in vivo, po; for selectivity ratio: LD50 per os/ED50 per os
Protocol: (§1) The toxicity of the products to be studied was investigated by the oral administration, using an esophageal tube, of each of the said products to male mice with a body weight of 18 to 22 g, divided into groups each containing 10 to 20 animals. The mortality was recorded over a 14-day period.
(§2) The results obtained, which are expressed in the form of LD50 in mg/kg, are collated in Table II below.

[3] = system: convulsions induced by supramaximal electroshock (MCE); test: Anticonvulsant properties: convulsions induced by supramaximal electroshock (MCE), oral, mice; format: in vivo; details: per os, male mice, 30 min after administration; for ED50: Mus musculus, po, 0.5 h, read-out: ED50 in respect of convulsions induced by MCE; for ED50 in respect of convulsions induced by MCE: 30 min
Excerpt: MCE: supramaximal electroshock;
*: ED50 in mg/kg, determined per os on groups each containing ten

in vivo [4] = format: in vivo; details: mouse, in vivo, po
Protocol: (§3) The neurotoxic properties were assessed on male mice by the so-called "Rota-rod" test carried out thirty minutes after the oral administration of the substances to be studied. The animals (divided into groups each containing ten male mice per dose and per product) are installed on the rod and their fall is observed over the next two minutes.
(§4) The results obtained are expressed in the form of the 50% neurotoxic dose (TD50) per os, which is the dose causing 50% of the animals to fall.
(§5) Protection index: TD50 per os/ED50 per os
(§6) *dose determined per os on groups each containing ten male mice.

male mice [5] = test: in vivo; format: in vivo
Protocol: as §3, §4, §5, §6

male mice [6] = test: in vivo; details: for Therapeutic index MCE / Therapeutic index PTZ: LD50 per os/ED50 per os
Protocol: as §1, §2

[7] = prior art documents; cited from earlier work
[8] = prior art documents; cited from earlier work; remark: listed apart in the source
convulsive seizures = test: Anticonvulsant properties in mice, overall statement (PTZ and MCE); format: in vivo, male mice; details: in view of protection and therapeutic indices, Table IV
Protocol: The anticonvulsant properties were investigated on male mice, thirty minutes after the oral administration of the substances to be studied, by the induction of convulsive seizures.
These seizures are caused either by the intraperitoneal injection of pentetrazole (125 mg/kg) or by electrical stimulation of the cornea (supra-maximal electroshock, abbreviated to MCE).
The results, expressed in the form of the 50% effective dose (ED50) per os (dose protecting 50% of the animals), are collated in Table III below.

[9] = LD50, Table II, male mice, 14 days
[10] = TD50 per os/ED50 per os, MCE, read-out: Protection index MCE
[11] = TD50 per os/ED50 per os, PTZ, read-out: Protection index PTZ
[12] = Rota-rod, per os, male mice, 30 min after administration, read-out: TD50
[13] = versus sodium valproate and trimethadione
[14] = LD50, Table IV, per os, male mice

Structure (SMILES): CC(=NOCC(=O)O)c1scnc1C [Ex. 19]
- ED50 [1]: > 200 mg/kg
- LD50 at 336 h (in vivo [2]; [9]): > 1000 mg/kg
- ED50 [3]: > 200 mg/kg

Structure (SMILES): CC(=NOCc1ccccc1F)c1scnc1C [Ex. 13]
- ED50 [1]: 105 mg/kg
- selectivity ratio (in vivo [4]; [10]): 4
- selectivity ratio (in vivo [4]; [11]): 7.1
- TD50 at 0.5 h (in vivo [4]; [12]): 750 mg/kg
- protection indices compared with the reference products (male mice [5]; [13]): better than those of the reference products
- LD50 at 336 h (in vivo [2]): > 1000 mg/kg
- selectivity ratio (in vivo [2]; Therapeutic index MCE, MCE): > 5.4
- selectivity ratio (in vivo [2]; Therapeutic index PTZ, PTZ): > 9.5
- LD50 (male mice [6]; Table IV, per os, male mice, 20160 min): > 1000 mg/kg
- therapeutic indices compared with the reference products (male mice [6]; [13]): better than those of the reference products
- ED50 [3]: 184 mg/kg

Structure (SMILES): CCCCON=C(C)c1scnc1C [Ex. 8, 5-(1-n-butoxyiminoethyl)-4-methylthiazole]
- ED50 [1]: > 200 mg/kg
- LD50 at 336 h (in vivo [2]; [9]): 750 mg/kg
- ED50 [3]: > 200 mg/kg

Structure (SMILES): CC(=NOCc1ccccc1C)c1scnc1C [Ex. 15]
- ED50 [1]: 60 mg/kg
- LD50 at 336 h (in vivo [2]; [9]): > 1000 mg/kg

Structure (SMILES): Cc1ncsc1C(C)(C)O [2-(4-methylthiazol-5-yl)propan-2-ol]
- anticonvulsant properties (prior art) [7]: has anticonvulsant and antihypoxic properties
- antihypoxic properties (prior art) [8]: has anticonvulsant and antihypoxic properties

Structure (SMILES): CC(=NOCc1ccccc1)c1scnc1C [Ex. 12]
- ED50 in respect of convulsions induced by PTZ [1]: 100 mg/kg
- selectivity ratio (in vivo [4]; Protection index MCE): 8.6
- selectivity ratio (in vivo [4]; Protection index PTZ): 13.5
- TD50 at 0.5 h (in vivo [4]; TD50): 1350 mg/kg
- protection indices compared with the reference products (male mice [5]; mouse, in vivo): better than those of the reference products
- LD50 at 336 h (in vivo [2]; LD50): > 1000 mg/kg
- Therapeutic index MCE (male mice [6]): > 6.4
- Therapeutic index PTZ (male mice [6]): > 10.0
- therapeutic indices compared with the reference products (male mice [6]; mouse, in vivo): better than those of the reference products
- most effective products according to the invention (convulsive seizures): most effective
- ED50 in respect of convulsions induced by MCE [3]: 157 mg/kg

Structure (SMILES): CC(=NOCc1cccc(C(F)(F)F)c1)c1scnc1C [Ex. 16]
- ED50 [1]: 96 mg/kg
- selectivity ratio (in vivo [4]; [11]): 15.6
- TD50 at 0.5 h (in vivo [4]; [12]): 1500 mg/kg
- protection indices compared with the reference products (male mice [5]; [13]): better than those of the reference products
- LD50 at 336 h (in vivo [2]; [9]): > 1000 mg/kg
- LD50 at 336 h (in vivo [2]; [14]): > 1000 mg/kg
- selectivity ratio (in vivo [2]; Therapeutic index PTZ, PTZ): > 10.4
- therapeutic indices compared with the reference products (male mice [6]; [13]): better than those of the reference products
- ED50 [3]: > 200 mg/kg

Structure (SMILES): CC(=NO)c1sc(Cl)nc1C [Ex. 22]
- ED50 [1]: > 200 mg/kg
- LD50 at 336 h (in vivo [2]; [9]): > 1000 mg/kg
- ED50 [3]: > 200 mg/kg

Structure (SMILES): CCON=C(C)c1scnc1C [Ex. 5]
- ED50 in respect of convulsions induced by PTZ [1]: 100 mg/kg
- selectivity ratio (in vivo [4]; Protection index MCE): 6.3
- selectivity ratio (in vivo [4]; Protection index PTZ): 7.5
- TD50 at 0.5 h (in vivo [4]; TD50): 750 mg/kg
- protection indices compared with the reference products (male mice [5]; mouse, in vivo): better than those of the reference products
- LD50 at 336 h (in vivo [2]; LD50): 1000 mg/kg
- selectivity ratio (in vivo [2]; Therapeutic index MCE, MCE): 8.3
- selectivity ratio (in vivo [2]; Therapeutic index PTZ, PTZ): 10
- therapeutic indices compared with the reference products (male mice [6]; mouse, in vivo): better than those of the reference products
- ED50 in respect of convulsions induced by MCE [3]: 120 mg/kg

Structure (SMILES): CC(=NOCCN1CCCC1)c1scnc1C [Ex. 21]
- ED50 [1]: > 200 mg/kg
- LD50 at 336 h (in vivo [2]; [9]): 360 mg/kg
- ED50 [3]: > 200 mg/kg

Structure (SMILES): CC(=NOCc1cccc(Cl)c1)c1scnc1C [Ex. 14]
- ED50 [1]: 140 mg/kg
- selectivity ratio (in vivo [4]; [11]): 5.4
- TD50 at 0.5 h (in vivo [4]; [12]): 750 mg/kg
- LD50 at 336 h (in vivo [2]; [9]): > 1000 mg/kg
- LD50 at 336 h (in vivo [2]; [14]): > 1000 mg/kg
- selectivity ratio (in vivo [2]; Therapeutic index PTZ, PTZ): > 7.1
- ED50 [3]: > 200 mg/kg

Structure (SMILES): CON=C(C)c1scnc1C.Cl [Ex. 2, 5-(1-methoxyiminoethyl)-4-methylthiazole hydrochloride]
- ED50 [1]: 72 mg/kg
- TD50 at 0.5 h (in vivo [4]; TD50): 270 mg/kg
- Protection index MCE (male mice [5]; mouse, in vivo, po): 2.7
- Protection index PTZ (male mice [5]; mouse, in vivo, po): 3.8
- LD50 at 336 h (in vivo [2]; [9]): 1000 mg/kg
- LD50 at 336 h (in vivo [2]; [14]): 1000 mg/kg
- Therapeutic index MCE (male mice [6]): 10.0
- Therapeutic index PTZ (male mice [6]): 13.9
- ED50 [3]: 100 mg/kg

Structure (SMILES): CON=C(C)c1sc(C)nc1C [Ex. 26]
- ED50 [1]: > 200 mg/kg
- LD50 at 336 h (in vivo [2]; [9]): > 1000 mg/kg
- ED50 [3]: > 200 mg/kg

Structure (SMILES): CN1C(=O)OC(C)(C)C1=O [TRIM, trimethadione, reference compound]
- selectivity ratio (in vivo [4]; [10]): 2
- selectivity ratio (in vivo [4]; [11]): 4
- selectivity ratio (in vivo [2]; Therapeutic index MCE, MCE): 4.4
- selectivity ratio (in vivo [2]; Therapeutic index PTZ, PTZ): 8.7
- ED50 [3]: 500 mg/kg

Structure (SMILES): CCCCON=C(C)c1scnc1C.Cl [Ex. 9, 5-(1-n-butoxyiminoethyl)-4-methylthiazole hydrochloride]
- ED50 [1]: 138 mg/kg
- selectivity ratio (in vivo [4]; Protection index MCE): 4
- selectivity ratio (in vivo [4]; Protection index PTZ): 4.4
- TD50 at 0.5 h (in vivo [4]; TD50): 600 mg/kg
- LD50 at 336 h (in vivo [2]; [9]): > 1000 mg/kg
- LD50 at 336 h (in vivo [2]; [14]): > 1000 mg/kg
- selectivity ratio (in vivo [2]; Therapeutic index MCE, MCE): > 6.7
- selectivity ratio (in vivo [2]; Therapeutic index PTZ, PTZ): > 7.3
- ED50 [3]: 150 mg/kg

Structure (SMILES): Cc1ncsc1CO [5-hydroxymethyl-4-methylthiazole]
- anticonvulsant properties (prior art) [7]: devoid of anticonvulsant effects
